# Test results: ChEMBL document CHEMBL5303573, “Mapping human microbiome drug metabolism by gut bacteria and their genes” (Nature, 2019)
# Assays:
# [1] = The drug is tested on Eggerthella lenta strain: ATCC25559 for biotransformation. The drug concentrations were measured before and after a 12-h incubation by liquid-chromatography-coupled mass spectrometry (LC–MS); conditions: 2 µM
# [2] = (§1) The drug is tested on the gut metagenome community of MV04 with ENA study accession number: PRJEB31790 and ENA sample accession number: SAMEA5537485 for biotransformation. The drug concentrations were measured over 9 timepoints collected between 0 and 24 hours of incubation by liquid-chromatography-coupled mass spectrometry (LC–MS); type: ADME; design: dose 2 uM, timepoint 0, 1, 2, 4, 6, 8, 12, 18, 24 hours; conditions: 2 µM
# [3] = victivallis vadensis, 12 h, 2 µM
# Description: The drug is tested on Victivallis vadensis strain: ATCC BAA-548 for biotransformation. The drug concentrations were measured before and after a 12-h incubation by liquid-chromatography-coupled mass spectrometry (LC–MS)
# [4] = The drug is tested on Ruminococcus torques strain: ATCC27756 for biotransformation. The drug concentrations were measured before and after a 12-h incubation by liquid-chromatography-coupled mass spectrometry (LC–MS); type: ADME; design: dose 2 uM, timepoint 0 vs 12 hours; conditions: 2 µM
# [5] = as §1, with “MV18” for “MV04”, “SAMEA5537499” for “SAMEA5537485”; type: ADME; design: dose 2 uM, timepoint 0, 1, 2, 4, 6, 8, 12, 18, 24 hours; conditions: 2 µM
# [6] = parabacteroides distasonis, 12 h, 2 µM
# Description: The drug is tested on Parabacteroides distasonis strain: ATCC8503 for biotransformation. The drug concentrations were measured before and after a 12-h incubation by liquid-chromatography-coupled mass spectrometry (LC–MS)
# [7] = as §1, with “MV16” for “MV04”, “SAMEA5537497” for “SAMEA5537485”; type: ADME; design: dose 2 uM, timepoint 0, 1, 2, 4, 6, 8, 12, 18, 24 hours; conditions: 2 µM
# [8] = as §1, with “MV10” for “MV04”, “SAMEA5537491” for “SAMEA5537485”; type: ADME; design: dose 2 uM, timepoint 0, 1, 2, 4, 6, 8, 12, 18, 24 hours; conditions: 2 µM
# [9] = as §1, with “MV25” for “MV04”, “SAMEA5537506” for “SAMEA5537485”; type: ADME; design: dose 2 uM, timepoint 0, 1, 2, 4, 6, 8, 12, 18, 24 hours; conditions: 2 µM
# [10] = as §1, with “MV26” for “MV04”, “SAMEA5537507” for “SAMEA5537485”; type: ADME; design: dose 2 uM, timepoint 0, 1, 2, 4, 6, 8, 12, 18, 24 hours; conditions: 2 µM
# [11] = The drug is tested on Bacteroides vulgatus strain: ATCC8482 for biotransformation. The drug concentrations were measured before and after a 12-h incubation by liquid-chromatography-coupled mass spectrometry (LC–MS); conditions: phocaeicola vulgatus, 2 µM
# [12] = as §1, with “MV13” for “MV04”, “SAMEA5537494” for “SAMEA5537485”; type: ADME; design: dose 2 uM, timepoint 0, 1, 2, 4, 6, 8, 12, 18, 24 hours; conditions: 2 µM
# [13] = bacteroides stercoris, 12 h, 2 µM
# Description: The drug is tested on Bacteroides stercoris strain: ATCC43183 for biotransformation. The drug concentrations were measured before and after a 12-h incubation by liquid-chromatography-coupled mass spectrometry (LC–MS)
# [14] = limosilactobacillus reuteri cf48-3a, 12 h, 2 µM
# Description: The drug is tested on Lactobacillus reuteri CF48-3A strain: BEI HM-102 for biotransformation. The drug concentrations were measured before and after a 12-h incubation by liquid-chromatography-coupled mass spectrometry (LC–MS)
Bacterial Biotransformation [1],Bacterial Biotransformation [2],Bacterial Biotransformation [3],Bacterial Biotransformation [4],Bacterial Biotransformation [5],Bacterial Biotransformation [6],Bacterial Biotransformation [7],Bacterial Biotransformation [8],Bacterial Biotransformation [9],Bacterial Biotransformation [10],Bacterial Biotransformation [11],Bacterial Biotransformation [12],Bacterial Biotransformation [13],Bacterial Biotransformation [14],SMILES
Compound metabolized,Compound NOT metabolized,Compound metabolized,Compound metabolized,Compound NOT metabolized,Compound metabolized,Compound NOT metabolized,Compound NOT metabolized,Compound NOT metabolized,Compound NOT metabolized,Compound metabolized,Compound NOT metabolized,–,–,COc1ccc([C@@H]2Sc3ccccc3N(CCN(C)C)C(=O)[C@@H]2OC(C)=O)cc1 [DILTIAZEM]
–,Compound metabolized,Compound metabolized,Compound NOT metabolized,Compound metabolized,Compound metabolized,Compound metabolized,Compound metabolized,Compound metabolized,Compound metabolized,Compound metabolized,Compound metabolized,Compound metabolized,Compound NOT metabolized,CC(=O)OCC(CCn1cnc2cnc(N)nc21)COC(C)=O [FAMCICLOVIR]
–,Compound metabolized,Compound NOT metabolized,Compound metabolized,Compound metabolized,Compound NOT metabolized,Compound metabolized,Compound metabolized,Compound metabolized,Compound metabolized,Compound metabolized,Compound metabolized,Compound metabolized,Compound NOT metabolized,C#C[C@]1(OC(C)=O)CC[C@H]2[C@@H]3CCC4=CC(=O)CC[C@@H]4[C@H]3CC[C@@]21C [NORETHINDRONE ACETATE]
